Laboratory results from publication PMC9643506 (Scientific Reports, 2022).
Where two headings read alike, the source gives them in different places. Non-standard residues stand in square brackets, D forms with d. Residues, ends and D or L forms follow the SMILES beside them. No end group written: not given here. d2Nal = N[C@H](Cc1ccc2ccccc2c1)C(=O)O; αMeF = C[C@](N)(Cc1ccccc1)C(=O)O

Tests used:
[1] = target: T1, B1R (Homo sapiens, UniProt P46663); test: IP-one (intracellular IP1) assay in T-REx 293/B1R cell line; assay type: cell-based
T1 construct: Thermo Fisher Scientific (T-REx 293 cells)
T1 sequence (P46663 1-353): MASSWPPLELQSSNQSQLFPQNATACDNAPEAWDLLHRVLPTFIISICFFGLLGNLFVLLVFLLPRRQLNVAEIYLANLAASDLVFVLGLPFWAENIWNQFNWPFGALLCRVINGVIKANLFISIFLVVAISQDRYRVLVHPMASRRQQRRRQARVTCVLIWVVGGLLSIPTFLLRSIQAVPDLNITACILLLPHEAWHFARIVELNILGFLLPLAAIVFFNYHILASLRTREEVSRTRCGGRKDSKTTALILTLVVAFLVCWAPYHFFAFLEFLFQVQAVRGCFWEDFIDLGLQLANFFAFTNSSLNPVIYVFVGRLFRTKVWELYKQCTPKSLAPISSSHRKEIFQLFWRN
Procedure: Cell culture and transfection.
(§1) The cell pellet was suspended in Hanks-HEPES (130 mM NaCl, 5.4 mM KCl, 1.8 mM CaCl2, 0.8 mM MgSO4, 0.9 mM NaH2PO4, 20 mM HEPES, LiCl 50 mM, and 3.25 mM glucose; pH 7.4).
Data were analyzed using GraphPad Prism version 5.04 for Windows (GraphPad software).

[2] = tested on: mock T-REx 293 cell line; test: IP1 assay in mock T-REx 293 cells without transfection of bradykinin receptors; assay type: cell-based, human; details: various doses of BK
Procedure: as §1

[3] = tested on: U87-MG cells; test: MTT cytotoxicity assay, U87-MG cells; assay type: cell-based, human; details: 24 h treatment, mean ± SEM, n = 3 wells per experiment, 2–3 independent experiments
Procedure: (§2) Cisplatin, a cytostatic drug commonly used for cancer chemotherapy, was used as a reference compound.
(§3) The colorimetric tetrazolium salt assay with 3-([…]-2-yl)-2,5-diphenyltetrazolium bromide (MTT) was used to evaluate the cytotoxicity potential of the antagonists BK in the cancer cell lines H4, U87-MG, and SHP-77 (see Supporting Information for details)[52].
(§4) Cell lines were seeded at a concentration of 5000 cells/well (H4) and 10000 cells/well (U87-MG, SHP-77) in 96-well plates and incubated for 24 hours. […] These compounds were dissolved in redistilled water and added to the cultures at a final concentration of 0.1%. Twenty-four hours after treatment with the drugs, the MTT assay was performed according to the procedure described previously.^52 MTT solution was added to each well (at a final concentration of 0.15 mg/mL) and then incubated at 37°C for 30 minutes. Formosan crystals were resolved and measured at 570 nm using a 96-well microplate reader (Thermo Lab system Multiscan Spectrum). […] Data were analyzed using GraphPad Prism 7.04 software. Statistical differences were calculated using a one-way analysis of variance (ANOVA) followed by Tukey’s posthoc test. Values of p < 0.05 were considered significant.

[4] = tested on: SHP-77 cells; test: MTT cytotoxicity assay, SHP-77 cells; assay type: cell-based, human; details: 24 h treatment, mean ± SEM, n = 3 wells per experiment, 2–3 independent experiments
Procedure: as §2, §3, §4

[5] = tested on: H4 cells; test: MTT cytotoxicity assay, H4 cells; assay type: cell-based, human; details: 24 h treatment, mean ± SEM, n = 3 wells per experiment, 2–3 independent experiments
Procedure: as §2, §3, §4

[6] = tested on: caspase-3 and PARP cleavage; test: Western blot of caspase-3 activation and PARP cleavage in U87-MG, SHP-77 and H4 cells; assay type: cell-based, human; details: 24 h
Procedure: To verify whether the cytotoxic effects of the new B1R antagonists are mediated by apoptosis, the activation level of caspase-3, a key enzyme in the apoptosis process, and PARP protein, the caspase-3 substrate, were determined by Western blot analysis.
Cisplatin at 25 µM was used to induce control apoptosis. No significant change in the amount of cleaved PARP or caspase-3 activation was observed after B1R antagonist treatment compared with untreated cells (Fig. 5).
Figure 5 The effects of B1R antagonists and cisplatin on the expression levels of caspase-3 and PARP cleavage in cell lines U87-MG, SHP-77, and H4 were determined by Western blotting. 1. control cells; 2. cisplatin (25 μM); 3. […] BK11 (50 μM). […] Representative Western blot images showing expression of β-actin were used as a reference protein. Each picture represents a vertically cut part of nitrocellulose membranes. The membranes were cut before antibody application, considering the size margin according to the size of the molecular weight marker.
Western blot analysis was performed to evaluate the potential mechanism of cytotoxic activity of the antagonists of BK in cancer cell lines H4, U87-MG, and SHP-77 (see Supporting Information for details). Detection was performed using Pierce ECL Western blotting substrate (Thermo Fisher Scientific) and a Syngene GeneGnomeXRQ chemiluminescence analysis system. […]

[7] = tested on: B1R in U87-MG cell line; test: Functional assay: shift of BK dose-response curve by B1R antagonist, U87-MG cells; assay type: cell-based, human; details: antagonist 10 µM
From the text: (§5) In further experiments, the U87-MG, SHP-77, and H4 cell lines were used for the functional assay with BK and the reference B1R antagonist. As shown in Fig. 13S in Supplementary File, all three cell lines expressed the functional B1R protein and its activity according to the mRNA level shown in Fig. 4. The obtained results are consistent with previous findings showing the expression of functional B1R and B2R genes and proteins in human glioblastoma cells U87-MG[32],[33]. In other studies, cellular expression of B1 and B2 receptors was detected in five different subtypes of human lung carcinomas (adenocarcinoma, squamous cell carcinoma, large cell carcinoma, small cell carcinoma, and carcinoid tumors)[34]. In addition, B2R has also been characterized in the cell line SHP-77[35]. However, to our knowledge, this is the first time that we have detected B1R and B2R gene expression in H4 cells of human brain neuroglioma and B1R in SHP-77 cells of human lung carcinoma.
(§6) Figure 13S. […] All three cell lines expressed the functional protein B1R.

[8] = tested on: B1R in H4 cell line; test: Functional assay: shift of BK dose-response curve by B1R antagonist, H4 cells; assay type: cell-based, human; details: antagonist 10 µM
From the text: as §5, §6

[9] = tested on: B1R in SHP-77 cell line; test: Functional assay: shift of BK dose-response curve by B1R antagonist, SHP-77 cells; assay type: cell-based, human; details: antagonist 10 µM
From the text: as §5, §6

RPPGFSPFR [BK, Bradykinin]
EC50 [1]: 1300 nM

RPPGFSPFR-OH [BK, Bradykinin]
response in IP1 assay, mock cells [2]: did not respond

N=C(N)NCCC[C@H](NC(=O)[C@H](Cc1cccs1)NC(=O)[C@H]1CCCCN1C(=O)[C@H](CO)NC(=O)[C@H](Cc1cccs1)NC(=O)CNC(=O)[C@@H]1C[C@@H](O)CN1C(=O)[C@@H]1CCCN1C(=O)[C@H](CCCNC(=N)N)NC(=O)[C@@H](CCCNC(=N)N)NC(=O)CC12CC3CC(CC(C3)C1)C2)C(=O)O [BK11]
MTT, percentage of control, U87-MG ([3]; 25 µM): 96.125 ± 1.241 % of control
MTT, percentage of control, U87-MG ([3]; 100 µM): 81.07 ± 4.542 % of control
MTT, percentage of control, SHP-77 ([4]; 25 µM): 96.421 ± 3.474 % of control
MTT, percentage of control, SHP-77 ([4]; 100 µM): 85.391 ± 5.646 % of control
B1R screening, effect in the presence of BK (antagonist mode) ([1]; T-REx 293/B1R cells, 25 μM analog with BK at EC80): antagonistic effect
MTT, percentage of control, H4 ([5]; 25 µM): 94.235 ± 3.538 % of control
MTT, percentage of control, H4 ([5]; 100 µM): 65.668 ± 3.305 % of control
caspase-3 activation and PARP cleavage (Western blot) ([6]; 50 μM, compared with untreated control cells): no induction of caspase-3 and PARP

CC[C@H](C)[C@H](NC(=O)[C@@H](Cc1ccc2ccccc2c1)NC(=O)[C@H](CO)NC(=O)[C@](C)(Cc1ccccc1)NC(=O)CNC(=O)[C@@H]1CCCN1C(=O)[C@@H]1CCCN1C(=O)[C@H](CCCNC(=N)N)NC(=O)[C@H](CCCCN)NC(C)=O)C(=O)O [R 892] (Ac-KRPPG[αMeF]S[d2Nal]I-OH; N-terminus and C-terminus assumed)
shift of BK EC50 after treatment with the B1R antagonist [7]: over 3 times
EC50 ([1]; T-REx 293/B1R cells, in the presence of EC80 BK (1250 nM), SD ± 66 nM, read-out: EC50 value for decrease of IP1 levels (B1R antagonist)): 69 nM
shift of BK EC50 after treatment with the B1R antagonist [8]: < 2 x
shift of BK EC50 after treatment with the B1R antagonist [9]: 2,5 x

N.N.[Cl][Pt][Cl] [Cisplatin]
MTT, percentage of control, U87-MG ([3]; 25 µM): 50.357 ± 4.97 % of control
MTT, percentage of control, U87-MG ([3]; 100 µM): 32.63 ± 6.934 % of control
MTT, percentage of control, SHP-77 ([4]; 25 µM): 53.631 ± 12.052 % of control
MTT, percentage of control, SHP-77 ([4]; 100 µM): 37.989 ± 11.626 % of control
MTT, percentage of control, H4 ([5]; 25 µM): 25.389 ± 3.71 % of control
MTT, percentage of control, H4 ([5]; 100 µM): 5.809 ± 1.488 % of control
caspase-3 activation and PARP cleavage (Western blot) ([6]; 25 μM, positive control of apoptosis): induction of caspase-3 and processed PARP fragments
